The values that follow come from paper PMC12621043, “Un-LOK-ing a New Approach for Conformational Selective Targeting of STK10 (LOK)” (ACS Medicinal Chemistry Letters, 2025).

For test [1], the target named is T1, SLK (Homo sapiens, UniProt Q9H2G2). The experiment in a line: PhosphoSens in vitro activity assay. The format is biochemical. Conditions: ATP 150 μM.
Test [2] concerns the target T2, CAMKK2B (Homo sapiens, UniProt Q96RR4).
T2 construct: purchased in-house DSF kinase panel (SGC-style construct names; the trailing letter is the construct ID)
The experiment in a line: DSF Tm panel. Type of test: binding. The conditions noted are these: 10 μM compound.

Test [3] deals with T3, DAPK1 (DAPK1A) (Homo sapiens, UniProt P53355).
T3 construct: purchased in-house DSF kinase panel (SGC-style construct names; the trailing letter is the construct ID)
Put plainly: DSF Tm panel. The format is binding. The conditions noted are these: 10 μM compound.

Test [4] addresses T4, STK4 (STK4A) (Homo sapiens, UniProt Q13043).
T4 construct: purchased in-house DSF kinase panel (SGC-style construct names; the trailing letter is the construct ID)
T4 sequence (Q13043 1-311): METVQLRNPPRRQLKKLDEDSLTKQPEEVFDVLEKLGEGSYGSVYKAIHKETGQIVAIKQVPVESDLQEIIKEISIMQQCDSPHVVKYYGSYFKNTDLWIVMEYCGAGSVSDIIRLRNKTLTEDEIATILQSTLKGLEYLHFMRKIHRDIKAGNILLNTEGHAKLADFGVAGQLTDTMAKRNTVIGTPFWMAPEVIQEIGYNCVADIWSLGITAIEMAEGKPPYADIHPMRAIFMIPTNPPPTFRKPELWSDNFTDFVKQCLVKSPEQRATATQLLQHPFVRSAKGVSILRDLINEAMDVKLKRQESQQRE
The experiment in a line: DSF Tm panel. Conditions: 10 μM compound. The format is binding.

Test [5] concerns the target T5, CDK2A (Homo sapiens, UniProt P24941).
T5 construct: purchased in-house DSF kinase panel (SGC-style construct names; the trailing letter is the construct ID)
The experiment in a line: DSF Tm panel. Type of test: binding. The conditions noted are these: 10 μM compound.

For test [6], the target named is T6, CDKL1A (Homo sapiens, UniProt Q00532).
T6 construct: purchased in-house DSF kinase panel (SGC-style construct names; the trailing letter is the construct ID)
The experiment in a line: DSF Tm panel. The conditions noted are these: 10 μM compound. Type of test: binding.

For test [7], the target named is T7, CASKA (Homo sapiens, UniProt O14936).
T7 construct: purchased in-house DSF kinase panel (SGC-style construct names; the trailing letter is the construct ID)
T7 sequence (O14936 12-276): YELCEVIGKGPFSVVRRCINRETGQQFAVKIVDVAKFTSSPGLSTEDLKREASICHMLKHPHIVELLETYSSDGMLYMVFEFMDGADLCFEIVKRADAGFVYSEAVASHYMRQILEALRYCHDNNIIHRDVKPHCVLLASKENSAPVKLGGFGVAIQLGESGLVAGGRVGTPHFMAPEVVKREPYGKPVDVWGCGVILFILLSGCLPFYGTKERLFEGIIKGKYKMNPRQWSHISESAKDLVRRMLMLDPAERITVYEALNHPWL
Put plainly: DSF Tm panel. Conditions: 10 μM compound. Type of test: binding.

For test [8], the target named is T8, MST3A (Homo sapiens, UniProt Q9Y6E0).
T8 construct: purchased in-house DSF kinase panel (SGC-style construct names; the trailing letter is the construct ID)
Put plainly: DSF Tm panel. Type of test: binding. Conditions: 10 μM compound.

Test [9] concerns the target T9, NEK1A (Homo sapiens, UniProt Q96PY6).
T9 construct: purchased in-house DSF kinase panel (SGC-style construct names; the trailing letter is the construct ID)
T9 sequence (Q96PY6 1-328): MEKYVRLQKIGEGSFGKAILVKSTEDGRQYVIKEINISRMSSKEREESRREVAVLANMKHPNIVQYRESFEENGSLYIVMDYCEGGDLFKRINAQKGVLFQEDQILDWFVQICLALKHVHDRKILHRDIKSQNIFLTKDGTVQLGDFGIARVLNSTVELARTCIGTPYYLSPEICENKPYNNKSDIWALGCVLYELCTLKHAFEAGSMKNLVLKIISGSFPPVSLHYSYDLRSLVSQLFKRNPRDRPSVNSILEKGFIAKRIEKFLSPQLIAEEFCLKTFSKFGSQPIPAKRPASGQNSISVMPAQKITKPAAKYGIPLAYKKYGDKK
The experiment in a line: DSF Tm panel. Type of test: binding. The conditions noted are these: 10 μM compound.

The target in test [10] is T10, MST4A (Homo sapiens, UniProt Q9P289).
T10 construct: purchased in-house DSF kinase panel (SGC-style construct names; the trailing letter is the construct ID)
Put plainly: DSF Tm panel. Conditions: 10 μM compound. Type of test: binding.

Test [11] addresses T11, SRPK1A (Homo sapiens, UniProt Q96SB4).
T11 construct: purchased in-house DSF kinase panel (SGC-style construct names; the trailing letter is the construct ID)
Put plainly: DSF Tm panel. Type of test: binding. Conditions: 10 μM compound.

The target of test [12] is T12, DAPK3 (DAPK3A) (Homo sapiens, UniProt O43293).
T12 construct: purchased in-house DSF kinase panel (SGC-style construct names; the trailing letter is the construct ID)
Put plainly: DSF Tm panel. Type of test: binding. Conditions: 10 μM compound.

Test [13] relates to RPS6KA1A. The experiment in a line: DSF Tm panel. The format is binding. Conditions: 10 μM compound.
Test [14] addresses T13, CLK1A (Homo sapiens, UniProt P49759).
T13 construct: purchased in-house DSF kinase panel (SGC-style construct names; the trailing letter is the construct ID)
Put plainly: DSF Tm panel. Type of test: binding. Conditions: 10 μM compound.

Test [15] has as its target T14, PKMYT1A (Homo sapiens, UniProt Q99640).
T14 construct: purchased in-house DSF kinase panel (SGC-style construct names; the trailing letter is the construct ID)
T14 sequence (Q99640 75-362): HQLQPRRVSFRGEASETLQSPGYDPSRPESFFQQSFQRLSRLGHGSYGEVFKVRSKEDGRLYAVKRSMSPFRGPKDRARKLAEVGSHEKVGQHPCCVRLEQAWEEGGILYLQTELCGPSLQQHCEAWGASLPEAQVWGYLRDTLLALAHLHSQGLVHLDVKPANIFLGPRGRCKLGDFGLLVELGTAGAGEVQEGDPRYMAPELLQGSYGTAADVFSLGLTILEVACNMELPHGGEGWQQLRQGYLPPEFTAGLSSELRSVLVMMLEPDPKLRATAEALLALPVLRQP
The experiment in a line: DSF Tm panel. The format is binding. The conditions noted are these: 10 μM compound.

The target in test [16] is T15, STK10 (Homo sapiens, UniProt O94804).
T15 construct: purchased in-house DSF kinase panel (SGC-style construct names; the trailing letter is the construct ID)
Put plainly: PhosphoSens in vitro activity assay. Type of test: biochemical. The conditions noted are these: ATP 160 μM.

Test [17] concerns the target T16, FGFR2A (Homo sapiens, UniProt P21802).
T16 construct: purchased in-house DSF kinase panel (SGC-style construct names; the trailing letter is the construct ID)
Put plainly: DSF Tm panel. Conditions: 10 μM compound. Type of test: binding.

The target of test [18] is T17, PCTK1A (Homo sapiens, UniProt Q00536).
T17 construct: purchased in-house DSF kinase panel (SGC-style construct names; the trailing letter is the construct ID)
The experiment in a line: DSF Tm panel. Type of test: binding. The conditions noted are these: 10 μM compound.

The target in test [19] is T18, OSR1A (Homo sapiens, UniProt O95747).
T18 construct: purchased in-house DSF kinase panel (SGC-style construct names; the trailing letter is the construct ID)
The experiment in a line: DSF Tm panel. The format is binding. The conditions noted are these: 10 μM compound.

Test [20] addresses T19, BRAFA (Homo sapiens, UniProt P15056).
T19 construct: purchased in-house DSF kinase panel (SGC-style construct names; the trailing letter is the construct ID)
Put plainly: DSF Tm panel. Type of test: binding. Conditions: 10 μM compound.

For test [21], the target named is T1, SLK. Put plainly: NanoBRET target engagement assay. The format is cell-based. On the set-up: has a greater impact on the full-length protein than on the kinase domains; host or cells: HEK293T (ATCC CRL-3216). The conditions noted are these: HEK293T cells. (Bioluminescence resonance energy transfer reports proximity on the nanometre scale.)
Test [22] addresses T20, DYRK1AA (Homo sapiens, UniProt Q13627).
T20 construct: purchased in-house DSF kinase panel (SGC-style construct names; the trailing letter is the construct ID)
The experiment in a line: DSF Tm panel. The format is binding. The conditions noted are these: 10 μM compound.

Test [23] concerns the target T21, GPRK5A (Homo sapiens, UniProt P34947).
T21 construct: purchased in-house DSF kinase panel (SGC-style construct names; the trailing letter is the construct ID)
The experiment in a line: DSF Tm panel. The format is binding. Conditions: 10 μM compound.

Test [24] deals with T22, MAPK1A (Homo sapiens, UniProt P28482).
T22 construct: purchased in-house DSF kinase panel (SGC-style construct names; the trailing letter is the construct ID)
Put plainly: DSF Tm panel. Conditions: 10 μM compound. Type of test: binding.

T19 sequence (P15056 448-723): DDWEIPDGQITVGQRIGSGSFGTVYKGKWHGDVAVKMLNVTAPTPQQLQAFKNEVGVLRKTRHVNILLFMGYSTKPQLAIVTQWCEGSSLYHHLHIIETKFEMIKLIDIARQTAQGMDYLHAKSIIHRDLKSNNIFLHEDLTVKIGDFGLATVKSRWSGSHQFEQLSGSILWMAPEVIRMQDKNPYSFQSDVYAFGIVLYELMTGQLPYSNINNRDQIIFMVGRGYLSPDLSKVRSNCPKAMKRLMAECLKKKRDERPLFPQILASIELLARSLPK
T18 sequence (O95747 17-291): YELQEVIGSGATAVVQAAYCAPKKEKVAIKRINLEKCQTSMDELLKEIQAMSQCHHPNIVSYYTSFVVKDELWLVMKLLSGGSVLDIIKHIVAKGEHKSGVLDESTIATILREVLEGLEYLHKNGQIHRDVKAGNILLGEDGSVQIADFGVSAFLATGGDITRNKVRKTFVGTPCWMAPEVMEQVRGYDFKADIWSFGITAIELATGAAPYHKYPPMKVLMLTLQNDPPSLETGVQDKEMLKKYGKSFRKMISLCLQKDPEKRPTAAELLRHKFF
T2 sequence (Q96RR4 161-449): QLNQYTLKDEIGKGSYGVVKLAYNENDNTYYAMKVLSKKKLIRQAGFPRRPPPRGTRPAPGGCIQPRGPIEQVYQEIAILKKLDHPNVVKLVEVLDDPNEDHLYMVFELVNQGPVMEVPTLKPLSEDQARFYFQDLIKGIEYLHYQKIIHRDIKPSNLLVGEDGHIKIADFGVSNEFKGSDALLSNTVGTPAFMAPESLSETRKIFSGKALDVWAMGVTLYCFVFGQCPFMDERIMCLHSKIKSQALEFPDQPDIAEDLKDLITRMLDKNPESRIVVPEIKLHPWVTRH
T12 sequence (O43293 whole entry): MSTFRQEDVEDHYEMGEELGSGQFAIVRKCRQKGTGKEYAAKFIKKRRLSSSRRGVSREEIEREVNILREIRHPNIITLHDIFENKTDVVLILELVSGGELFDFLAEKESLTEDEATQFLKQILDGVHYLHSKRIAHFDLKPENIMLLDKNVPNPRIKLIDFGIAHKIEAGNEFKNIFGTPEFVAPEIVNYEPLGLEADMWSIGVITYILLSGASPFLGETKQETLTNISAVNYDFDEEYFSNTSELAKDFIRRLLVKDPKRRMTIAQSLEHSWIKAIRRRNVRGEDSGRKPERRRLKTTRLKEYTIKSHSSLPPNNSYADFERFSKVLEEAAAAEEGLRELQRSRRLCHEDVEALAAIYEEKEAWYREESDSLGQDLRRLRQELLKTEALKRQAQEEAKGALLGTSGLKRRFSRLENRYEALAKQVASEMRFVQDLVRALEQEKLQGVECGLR
T13 sequence (P49759 148-484): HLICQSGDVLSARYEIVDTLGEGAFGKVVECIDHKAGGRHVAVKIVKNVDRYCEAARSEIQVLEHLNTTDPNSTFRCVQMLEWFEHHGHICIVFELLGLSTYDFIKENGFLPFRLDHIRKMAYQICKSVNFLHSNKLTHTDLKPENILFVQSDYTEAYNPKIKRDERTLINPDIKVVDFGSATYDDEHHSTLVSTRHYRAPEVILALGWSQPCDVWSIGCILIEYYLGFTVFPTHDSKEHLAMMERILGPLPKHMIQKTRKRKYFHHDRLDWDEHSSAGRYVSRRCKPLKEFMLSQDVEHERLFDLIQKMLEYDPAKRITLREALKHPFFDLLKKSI
T3 sequence (P53355 1-285): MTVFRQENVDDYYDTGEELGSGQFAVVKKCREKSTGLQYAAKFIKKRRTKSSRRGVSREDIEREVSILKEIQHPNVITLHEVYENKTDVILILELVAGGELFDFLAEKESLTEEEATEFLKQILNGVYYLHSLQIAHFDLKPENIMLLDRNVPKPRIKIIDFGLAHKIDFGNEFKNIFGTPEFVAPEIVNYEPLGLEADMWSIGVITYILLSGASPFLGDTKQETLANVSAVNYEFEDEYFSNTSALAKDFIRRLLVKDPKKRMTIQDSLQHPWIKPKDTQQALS
T17 sequence (Q00536 163-478): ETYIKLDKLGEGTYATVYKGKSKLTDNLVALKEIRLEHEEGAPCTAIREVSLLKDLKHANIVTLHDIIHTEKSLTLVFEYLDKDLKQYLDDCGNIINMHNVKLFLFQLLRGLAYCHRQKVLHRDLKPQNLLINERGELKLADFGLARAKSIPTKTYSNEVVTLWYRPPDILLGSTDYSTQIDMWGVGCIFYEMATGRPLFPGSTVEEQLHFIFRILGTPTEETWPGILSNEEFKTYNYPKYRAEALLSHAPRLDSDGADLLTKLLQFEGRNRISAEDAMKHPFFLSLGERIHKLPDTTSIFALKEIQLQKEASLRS
T22 sequence (P28482 whole entry): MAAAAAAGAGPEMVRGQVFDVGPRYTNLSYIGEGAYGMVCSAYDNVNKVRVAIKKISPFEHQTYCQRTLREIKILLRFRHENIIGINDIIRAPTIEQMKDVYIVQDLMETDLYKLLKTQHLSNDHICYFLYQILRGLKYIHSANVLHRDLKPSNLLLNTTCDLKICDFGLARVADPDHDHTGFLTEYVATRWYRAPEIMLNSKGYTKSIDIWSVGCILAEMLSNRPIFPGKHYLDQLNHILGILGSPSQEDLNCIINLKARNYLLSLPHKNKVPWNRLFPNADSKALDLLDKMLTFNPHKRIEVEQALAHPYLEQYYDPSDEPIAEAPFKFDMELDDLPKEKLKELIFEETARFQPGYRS
T8 sequence (Q9Y6E0 whole entry): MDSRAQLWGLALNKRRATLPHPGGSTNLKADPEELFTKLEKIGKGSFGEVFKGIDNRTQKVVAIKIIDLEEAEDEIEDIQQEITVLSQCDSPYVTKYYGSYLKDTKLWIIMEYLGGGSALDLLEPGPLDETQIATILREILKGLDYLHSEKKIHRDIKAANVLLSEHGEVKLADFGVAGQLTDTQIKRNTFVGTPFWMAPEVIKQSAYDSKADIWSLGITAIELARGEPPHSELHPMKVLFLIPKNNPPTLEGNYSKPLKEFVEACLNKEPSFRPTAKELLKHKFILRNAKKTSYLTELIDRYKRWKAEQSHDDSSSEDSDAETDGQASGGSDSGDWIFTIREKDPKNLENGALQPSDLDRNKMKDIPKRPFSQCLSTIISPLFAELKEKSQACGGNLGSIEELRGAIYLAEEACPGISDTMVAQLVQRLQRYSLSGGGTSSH
T10 sequence (Q9P289 1-300): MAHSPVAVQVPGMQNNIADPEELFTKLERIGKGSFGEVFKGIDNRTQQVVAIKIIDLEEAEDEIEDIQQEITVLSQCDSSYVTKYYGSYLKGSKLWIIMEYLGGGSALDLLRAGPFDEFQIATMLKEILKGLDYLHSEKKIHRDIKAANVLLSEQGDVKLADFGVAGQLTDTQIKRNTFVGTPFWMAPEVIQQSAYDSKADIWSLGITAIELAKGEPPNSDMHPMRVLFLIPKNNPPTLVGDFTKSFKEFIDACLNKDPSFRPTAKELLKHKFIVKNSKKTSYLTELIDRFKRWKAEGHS
T16 sequence (P21802 458-770): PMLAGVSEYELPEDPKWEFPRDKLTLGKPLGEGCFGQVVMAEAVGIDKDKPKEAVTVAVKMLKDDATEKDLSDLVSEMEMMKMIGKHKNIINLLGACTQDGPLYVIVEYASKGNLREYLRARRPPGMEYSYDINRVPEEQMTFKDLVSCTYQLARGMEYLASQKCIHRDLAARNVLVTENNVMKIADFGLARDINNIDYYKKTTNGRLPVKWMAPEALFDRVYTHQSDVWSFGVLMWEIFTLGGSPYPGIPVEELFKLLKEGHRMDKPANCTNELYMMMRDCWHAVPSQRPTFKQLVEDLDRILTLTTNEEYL
T15 sequence (O94804 18-317 limits assumed): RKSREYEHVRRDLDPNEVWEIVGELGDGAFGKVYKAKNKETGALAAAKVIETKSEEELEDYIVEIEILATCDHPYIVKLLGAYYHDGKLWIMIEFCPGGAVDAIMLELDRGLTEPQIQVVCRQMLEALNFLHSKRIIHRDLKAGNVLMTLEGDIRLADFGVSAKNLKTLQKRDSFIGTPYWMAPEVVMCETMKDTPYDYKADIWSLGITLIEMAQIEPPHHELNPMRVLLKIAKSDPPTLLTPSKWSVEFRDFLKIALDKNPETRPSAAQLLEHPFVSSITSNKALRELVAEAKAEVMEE
T21 sequence (P34947 186-514): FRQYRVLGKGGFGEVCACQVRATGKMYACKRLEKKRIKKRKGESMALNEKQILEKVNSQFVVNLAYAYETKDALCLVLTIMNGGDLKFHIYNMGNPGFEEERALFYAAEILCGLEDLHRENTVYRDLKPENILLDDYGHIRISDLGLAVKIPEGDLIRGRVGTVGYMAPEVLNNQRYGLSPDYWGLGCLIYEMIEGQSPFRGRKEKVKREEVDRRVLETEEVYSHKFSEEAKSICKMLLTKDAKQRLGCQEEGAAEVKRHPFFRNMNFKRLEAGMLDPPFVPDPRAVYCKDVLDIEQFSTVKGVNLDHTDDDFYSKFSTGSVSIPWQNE
T11 sequence (Q96SB4 80-653): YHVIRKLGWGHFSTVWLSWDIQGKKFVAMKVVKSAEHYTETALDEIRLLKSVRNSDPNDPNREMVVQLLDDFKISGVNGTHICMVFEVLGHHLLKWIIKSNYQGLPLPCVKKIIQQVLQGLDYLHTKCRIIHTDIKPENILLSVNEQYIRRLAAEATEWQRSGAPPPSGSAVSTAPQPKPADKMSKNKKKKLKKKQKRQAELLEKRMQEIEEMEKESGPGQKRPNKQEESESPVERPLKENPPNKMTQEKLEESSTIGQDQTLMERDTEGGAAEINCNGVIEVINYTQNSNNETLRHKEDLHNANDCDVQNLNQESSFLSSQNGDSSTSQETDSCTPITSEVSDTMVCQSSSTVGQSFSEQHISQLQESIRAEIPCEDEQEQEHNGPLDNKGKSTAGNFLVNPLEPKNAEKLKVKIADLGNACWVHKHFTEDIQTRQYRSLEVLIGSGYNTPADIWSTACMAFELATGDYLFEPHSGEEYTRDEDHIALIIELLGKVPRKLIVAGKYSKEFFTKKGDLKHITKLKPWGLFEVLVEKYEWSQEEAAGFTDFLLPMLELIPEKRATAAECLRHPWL

With `O=C(NCc1ccc(Cl)cc1)Nc1ccc2cc1OCCOCCNc1ccn3ncc-2c3n1` [compound 19], the IC50 in test [1] stood at 7.16 ± 1.12 µM; in [16], 0.95 ± 0.12 µM. The ΔTm at 10 µM in [2] is 3.4 °C; in test [3] it was -0.1 °C; in [4], 5.5 °C; in [5] it was 5.6 °C; in test [6], 0.3 °C; in test [7] it was 2.2 °C. Moreover, the ΔTm at 10 µM in test [8] is 0.7 °C; in [9] it was -0.2 °C; in test [10], 1.1 °C; in [11], 0.2 °C; in [12], 0.9 °C; in [14], 2.1 °C. The ΔTm at 10 µM in test [15] was 1.4 °C; in [17], 3.7 °C; in test [18], 1.3 °C; in test [19], 0.7 °C; in test [20] it was 0.8 °C; in test [22], -1 °C. Further, the ΔTm at 10 µM in [23] came to 1.5 °C; in [24], 0.1 °C. For the same compound, the “ΔTm RPS6KA1A” value in test [13] was 0,4 °C. Further, the EC50 in test [21] was > 50 µM.

For the compound `O=C(NCc1ccc(Cl)cc1Cl)Nc1ccc2cc1OCCOCCNc1ccn3ncc-2c3n1` [compound 20], the IC50 turned out to be 7.44 ± 1.64 µM in test [1] and 1.43 ± 0.28 µM in [16]. Moreover, the ΔTm at 10 µM in [2] stood at 1.2 °C; in test [3], 0.2 °C; in test [4], 3.6 °C; in test [5] it was 2.5 °C; in test [6] it was 0.9 °C; in test [7], 1.7 °C. Further, the ΔTm at 10 µM in [8] worked out at 0 °C; in [9], 0.7 °C; in test [10] it was 0.5 °C; in [11], 0.6 °C; in test [12], 0.5 °C; in test [14] it was 2.1 °C. Also, the ΔTm at 10 µM in [15] is 1.6 °C; in test [17], 0.9 °C; in test [18] it was 1.1 °C; in [19], 1.8 °C; in test [20] it was 0.4 °C; in [22], 0.6 °C. Further, the ΔTm at 10 µM in test [23] is 1.3 °C; in [24], 0.8 °C. Moreover, in [13], the “ΔTm RPS6KA1A” value was 0,9 °C. In addition, in [21], the EC50 was > 50 µM.

The term IC50 denotes the concentration needed to halve the response being measured. One may read the ΔTm as the change in melting temperature against a reference sample. One may read the EC50 as the concentration at which the effect is half-maximal.
